In ChEMBL document CHEMBL1201862, “PubChem BioAssay data set” (2004):
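Interpolation was linear, between the two tested concentrations surrounding the appropriate level; five concentrations were tested over 48 hours in 96-well plates. GI50 is the concentration that inhibits growth by half.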 Calls of active or inactive are those of the source. Cut-off read from the data, not from the text of the source: active = GI50 up to about 1.1 µM and inactive = higher.

Columns and labels:
Assay in all cases: growth of human tumour cells (NCI), 48 h
DMS-273 = test system: DMS-273
HOP-18 = test system: HOP-18
SNB-78 = test system: SNB-78
XF498 = test system: XF498
LXFL 529 = test system: LXFL 529
M19-MEL = test system: M19-MEL
KM-20L2 = test system: KM-20L2
RXF 631 = test system: RXF 631
DMS-114 = test system: DMS-114

Row | SMILES | GI50 (DMS-273) | GI50 (HOP-18) | GI50 (SNB-78) | GI50 (XF498) | GI50 (LXFL 529) | GI50 (M19-MEL) | GI50 (KM-20L2) | GI50 (RXF 631) | GI50 (DMS-114)
1 | Nc1nc(Cl)cc(NCCCCCCCCNc2cc(Cl)nc(N)n2)n1 | 8.79 µM (inactive) | 27.1 µM (inactive) | 71.6 µM (inactive) | 1.64 µM (inactive) | 1.86 µM (inactive) | 16 µM (inactive) | 9.48 µM (inactive) | – | –
2 | COc1ccc2c(c1)C(=O)C1CC(=O)CCC21 (stereo not drawn) | > 100 µM (inactive) | > 100 µM (inactive) | > 100 µM (inactive) | – | > 100 µM (inactive) | > 100 µM (inactive) | > 100 µM (inactive) | > 100 µM (inactive) | > 100 µM (inactive)
3 | CC(CCCOC(c1ccccc1)(c1ccccc1)c1ccccc1)OC(=O)Nc1ccccc1 (stereo not drawn) | 15.5 µM (inactive) | – | 16.4 µM (inactive) | 14.9 µM (inactive) | 13.2 µM (inactive) | 14.6 µM (inactive) | 5.12 µM (inactive) | – | 12.1 µM (inactive)
4 | CCNC(=O)COc1ccc(Cl)c(C)c1 | > 100 µM (inactive) | > 100 µM (inactive) | > 100 µM (inactive) | – | > 100 µM (inactive) | > 100 µM (inactive) | > 100 µM (inactive) | – | > 100 µM (inactive)
5 | CCCCCCCCOCC(O)COC (stereo not drawn) | > 100 µM (inactive) | > 100 µM (inactive) | – | – | > 100 µM (inactive) | > 100 µM (inactive) | – | – | > 100 µM (inactive)
6 | COc1cc2cnc3c4cc(OC(C)C)c(OC)cc4ccc3c2cc1OC | – | > 100 µM (inactive) | – | > 100 µM (inactive) | > 100 µM (inactive) | > 100 µM (inactive) | > 100 µM (inactive) | – | > 100 µM (inactive)
7 | Cn1ncc2ccc3[nH]c4ccccc4c(=O)c3c21 | 28.6 µM (inactive) | 58.5 µM (inactive) | 27.7 µM (inactive) | – | 30 µM (inactive) | 23.2 µM (inactive) | 33.8 µM (inactive) | 21.8 µM (inactive) | 35.8 µM (inactive)
8 | O=C(/C(=C/c1ccc(Cl)cc1)c1ccccc1)c1ccccc1 | – | 26.5 µM (inactive) | 19.9 µM (inactive) | 18.5 µM (inactive) | 15.9 µM (inactive) | – | – | – | 16.7 µM (inactive)
9 | CC1(c2cccc(N)c2)C2C(=O)NC(=O)C1C(=O)NC2=O (stereo not drawn) | 25.5 µM (inactive) | – | 51.2 µM (inactive) | 21.8 µM (inactive) | 32.2 µM (inactive) | 37.2 µM (inactive) | 27.6 µM (inactive) | > 100 µM (inactive) | 27.5 µM (inactive)
10 | N#CC1CC2(C1)OCCS2 (stereo not drawn) | > 100 µM (inactive) | – | > 100 µM (inactive) | – | > 100 µM (inactive) | – | > 100 µM (inactive) | – | –
11 | C/C(CN1C(=O)c2ccccc2C1=O)=N\NS(=O)(=O)c1cccc([N+](=O)[O-])c1 | > 100 µM (inactive) | > 100 µM (inactive) | > 100 µM (inactive) | > 100 µM (inactive) | > 100 µM (inactive) | > 100 µM (inactive) | > 100 µM (inactive) | > 100 µM (inactive) | –
12 | CCC1(C(=O)OC)CCc2c(OC)ccc(OC)c2C1=O (stereo not drawn) | > 100 µM (inactive) | > 100 µM (inactive) | > 100 µM (inactive) | > 100 µM (inactive) | > 100 µM (inactive) | > 100 µM (inactive) | > 100 µM (inactive) | > 100 µM (inactive) | > 100 µM (inactive)
13 | C/C(CCn1[nH]c(=O)ccc1=O)=N\NC(=O)C(N)=O | > 100 µM (inactive) | > 100 µM (inactive) | > 100 µM (inactive) | > 100 µM (inactive) | > 100 µM (inactive) | > 100 µM (inactive) | > 100 µM (inactive) | – | > 100 µM (inactive)
14 | Cc1nc(Nc2ccc([N+](=O)[O-])cc2)sc1C(/C=C/c1ccc(N(C)C)cc1)=N/NC(=O)c1ccccc1 | – | 72.8 µM (inactive) | 41.6 µM (inactive) | > 100 µM (inactive) | 29.1 µM (inactive) | 61.1 µM (inactive) | 36.3 µM (inactive) | 32.6 µM (inactive) | 29 µM (inactive)
15 | Cc1c(Cl)cccc1N1C(=O)C(Cl)=C(Cl)C1=O | > 100 µM (inactive) | > 100 µM (inactive) | > 100 µM (inactive) | 66.7 µM (inactive) | > 75.7 µM (inactive) | > 100 µM (inactive) | > 100 µM (inactive) | – | > 100 µM (inactive)
16 | COc1ccc(/C(C#N)=C(/N)SCc2ccccc2Cl)cc1 | – | 19.5 µM (inactive) | 27 µM (inactive) | 14.8 µM (inactive) | 14.4 µM (inactive) | 16.6 µM (inactive) | 17.8 µM (inactive) | – | 17.7 µM (inactive)
17 | CCOC(=O)c1cn(Cc2ccccc2)c(=O)n1Cc1ccccc1 | > 100 µM (inactive) | > 100 µM (inactive) | > 100 µM (inactive) | 25.8 µM (inactive) | > 100 µM (inactive) | > 100 µM (inactive) | > 100 µM (inactive) | > 100 µM (inactive) | 94 µM (inactive)
18 | Clc1ccccc1C1N2CCCCC2[C@@H]2c3[nH]c4ccccc4c3CCN12 (stereo partly drawn) | 27.4 µM (inactive) | 42 µM (inactive) | 25.4 µM (inactive) | 19.4 µM (inactive) | 31 µM (inactive) | 14.7 µM (inactive) | 18.6 µM (inactive) | – | 20 µM (inactive)
19 | CCC12CC[C@H](C#N)N3CCc4c(n(c5ccccc45)C(=O)C1)C32 (stereo partly drawn) | 5.14 µM (inactive) | < 0.01 µM (active) | 19.5 µM (inactive) | 20 µM (inactive) | 16.6 µM (inactive) | 18.7 µM (inactive) | 16.3 µM (inactive) | 16.4 µM (inactive) | –
20 | CC(C)(O)[C@@H]1CC[C@@]2(C)CCCC(O)C2(O)C1 (stereo partly drawn) | > 100 µM (inactive) | > 100 µM (inactive) | – | > 100 µM (inactive) | > 100 µM (inactive) | > 100 µM (inactive) | > 100 µM (inactive) | > 100 µM (inactive) | > 100 µM (inactive)
21 | COc1cc(C=O)c(-c2cc3c(cc2C=O)OCO3)c(OC)c1OC | 85.5 µM (inactive) | > 290 µM (inactive) | – | – | 78 µM (inactive) | 89.1 µM (inactive) | 69.5 µM (inactive) | 115 µM (inactive) | 84.5 µM (inactive)
22 | C[C@@H]1C[C@@H]([C@H](O)CC2CC(=O)NC(=O)C2)C(=O)[C@@H](C)C1 [CYCLOHEXIMIDE] | 0.0557 µM (active) | 0.249 µM (active) | 0.0875 µM (active) | 0.0348 µM (active) | 0.0187 µM (active) | 0.0607 µM (active) | 0.0705 µM (active) | 0.0248 µM (active) | 0.102 µM (active)
23 | COc1cc(C)c(CC/C(C)=C/Cc2cc(O)ccc2O)c(C)c1C [PANICEIN A HYDROQUINONE] | > 25 µM (inactive) | > 25 µM (inactive) | – | > 25 µM (inactive) | > 25 µM (inactive) | > 25 µM (inactive) | > 25 µM (inactive) | – | > 25 µM (inactive)
24 | Nc1ccc(S(=O)(=O)Nc2cnc3ccccc3n2)cc1 [SULFAQUINOXALINE] | > 100 µM (inactive) | > 100 µM (inactive) | > 100 µM (inactive) | > 100 µM (inactive) | > 100 µM (inactive) | > 100 µM (inactive) | > 100 µM (inactive) | > 100 µM (inactive) | > 100 µM (inactive)
